Experimental findings from patent US6933308B2 (Bristol-Myers Squibb Company, priority 2002, dated 2005) are described below.

For the test, the system named is KCNQ channels. Kind of test: Thallium flux assay for KCNQ channel openers. The test is classed as cell-based. Particulars: HEK-293 cells stably transfected with a KCNQ family member; for Min conc. response: minimal active concentration: lowest concentration giving signal >= 4 SD of negative controls; for EC50: thallium flux, 10 point concentration series. The procedure:
Thallium Flux Assay for KCNQ Channel Openers.
The thallium assay is a modification of that published by Weaver and is referenced in its entirety (Weaver, C. D. WO 02/31508, 2002).
Approximately 20,000 cells/well of an HEK-293 cell line stably transfected with one of the members of the KCNQ family were plated into clear-bottom, black-walled, poly-D-lysine coated, 384 well assay plates in 20 μl/well of low chloride plating medium. Low chloride plating medium was composed of the following: sodium gluconate, 109 mM; potassium gluconate, 5.4 mM; hemi-calcium gluconate, 3.6 mM; magnesium sulfate, 0.8 mM; sodium bicarbonate, 26.2 mM; sodium phosphate monobasic, 1.2 mM; glutamine, 2 mM; glucose, 5 mM; 4-(2-hydroxyethyl)-1-piperazineethanesulfonic acid (HEPES) (pH 7.3) 10 mM, MEM vitamin solution (10× concentration of vitamins, Gibco/LifeTechnologies 11120-052) and MEM amino acid solution (1× concentration of amino acids, Gibco/LifeTechnologies 11130-051).
Following overnight incubation in a 5% CO2 incubator at 37° C., the cells in the plates were loaded with 20 μl/well of a dye loading solution containing the commercially available thallium-sensitive fluorescent dye BTC-AM, the acetomethoxy ester of BTC (see U.S. Pat. No. 5,501,980) (2 μM) and pluronic acid F-127 (Molecular Probes P 6867) (0.02% w/v) in chloride free assay buffer. Chloride free assay buffer was composed of the following: sodium gluconate, 140 mM; potassium gluconate, 2.5 mM; hemi-calcium gluconate, 6 mM; hemi-magnesium gluconate, 2 mM; glucose, 5 mM; HEPES (pH 7.3), 10 mM.
Following incubation in the dye loading solution for from 45-90 min at room temperature, the dye loading solution was removed by aspiration and replaced with 40 μl/well of chloride free assay buffer.
Prior to addition to cell plates, test compound and standard compounds were dissolved in DMSO to 3 mM concentration. Compounds were then diluted from the 3 mM stock to 100-fold over the final assay concentration in DMSO. Finally, compounds in DMSO were diluted from 100-fold over the final assay concentration to 5-fold over the final assay concentration in chloride free assay buffer.
Ten μl/well of compounds at 5-fold over the final assay concentration were then added to the cell plates. This represents a 1:5 dilution, yielding the final test concentration. The wells used for test compounds were A1-P20. Wells A21-P22 contained a standard opener and a maximally efficacious concentration (positive control). Wells A23-P24 contained chloride free assay buffer containing 1% DMSO (negative control).
Following addition of test compounds, the plates were loaded onto the Molecular Devices FLIPR. The 488 nm line of the argon laser was used to excite the BTC and the emission filter was a 540(+/−30) nm. Images were collected at 1 Hz. Ten seconds of baseline were collected and then the FLIPR was used to add 13 μl/well of a stimulus buffer composed of 7.5 mM Tl2SO4 in chloride free assay buffer. Images were collected for an additional 60 seconds.
For data analysis, the amplitude of the average of the negative controls was subtracted from all wells. The amplitudes of the test compounds were then compared to the value of four standard deviations of the negative control wells. The lowest concentration of a test compound sufficient to generate a signal amplitude greater than or equal to four standard deviations from the amplitude of the negative controls was defined as the minimal active concentration.
For generating EC50 values, compounds were serially diluted in 1:3 volume increments to produce a 10 point concentration series. EC50 values were calculated by fitting the resulting amplitudes to a single-site logistic equation. EC50 was defined as the concentration of test compound required to yield 50% of the maximal response. Maximal response (Maximal opening) was the largest signal amplitude divided by the negative control amplitude generated by any concentration of a test compound. […]

`CC(NC(=O)c1sc(C(O)CN2CCN(C)CC2)nc1C(F)(F)F)c1cccc(C(F)(F)F)c1` (stereo not shown) [Example 53, 2-[1-hydroxy-2-(4-methyl-1-piperazinyl)ethyl]-4-(trifluoromethyl)-N-[1-[3-(trifluoromethyl)phenyl]ethyl]-5-thiazolecarboxamide] yielded a Min conc. response of 30 µM. For the compound `CC(NC(=O)c1sc(C(O)CN2CCCCC2)nc1C(F)(F)F)c1cccc(OC(F)(F)F)c1` (stereo not shown) [Example 41, 2-[1-hydroxy-2-(1-piperidinyl)ethyl]-N-[1-[3-(trifluoromethoxy)phenyl]ethyl]-4-(trifluoromethyl)-5-thiazolecarboxamide], the Min conc. response came to 30 µM and the EC50 lay within 1000 to 20000 nM. In the case of `C[C@H](NC(=O)c1sc(C(O)CN2CCN(C)CC2)nc1C(F)(F)F)c1cccc(N2CCOCC2)c1` (stereo partly drawn) [Example 54, 2-[1-hydroxy-2-(4-methyl-1-piperazinyl)ethyl]-N-[(1S)-1-[3-(4-morpholinyl)phenyl]ethyl]-4-(trifluoromethyl)-5-thiazolecarboxamide], the Min conc. response was 0.3 µM. As to `CC(NC(=O)c1sc(CCN(C)CCN(C)C)nc1C(F)(F)F)c1cccc(OC(F)(F)F)c1` (stereo not shown) [Example 19], the Min conc. response came out at 3 µM and the EC50 was in the range of 1000 to 20000 nM. The matching figures for `CCCN(CCc1nc(C(F)(F)F)c(C(=O)NC(C)c2cccc(OC(F)(F)F)c2)s1)CC1CC1` (stereo not shown) [Example 28, 2-[2-[(cyclopropylmethyl)propylamino]ethyl]-N-[1-[3-(trifluoromethoxy)phenyl]ethyl]-4-(trifluoromethyl)-5-thiazolecarboxamide]: 0.3 µM and less than 50 nM. The compound `CC(NC(=O)c1sc(CCN2CCSCC2)nc1C(F)(F)F)c1cccc(N(C)C)c1` (stereo not shown) [Example 46, N-[1-[3-(dimethylamino)phenyl]ethyl]-2-[2-(4-thiomorpholinyl)ethyl]-4-(trifluoromethyl)-5-thiazolecarboxamide] registered a Min conc. response of 3 µM. The compound `C[C@H](NC(=O)c1sc(CCNCc2ccco2)nc1C(F)(F)F)c1cccc(-c2cccnc2)c1` [Example 35, 2-[2-[(2-furanylmethyl)amino]ethyl]-N-[1-[3-(3-pyridinyl)phenyl]ethyl]-4-(trifluoromethyl)-5-thiazolecarboxamide] registered a Min conc. response of 10 µM and a 50% effective concentration (EC50) of 1000 to 20000 nM. The matching figures for `CC(NC(=O)c1sc(CCN2CCCC2)nc1C(F)(F)F)c1cccc(N(C)C)c1` (stereo not shown) [Example 9, N-[1-[3-(dimethylamino)phenyl]ethyl]-2-[2-(1-pyrrolidinyl)ethyl]-4-(trifluoromethyl)-5-thiazolecarboxamide]: 10 µM and 1000 to 20000 nM. The compound `CC(NC(=O)c1sc(C(O)CN2CCCC2)nc1C(F)(F)F)c1cccc(OC(F)(F)F)c1` (stereo not shown) [Example 57, 2-[1-hydroxy-2-(1-pyrrolidinyl)ethyl]-N-[1-[3-(trifluoromethoxy)phenyl]ethyl]-4-(trifluoromethyl)-5-thiazolecarboxamide] displayed a Min conc. response of 3 µM.

Take `CC(NC(=O)c1sc(C(O)CN2CCOCC2)nc1C(F)(F)F)c1cccc(OC(F)(F)F)c1` (stereo not shown) [Example 51, 2-[1-hydroxy-2-(4-morpholinyl)ethyl]-N-[1-[3-(trifluoromethoxy)phenyl]ethyl]-4-(trifluoromethyl)-5-thiazolecarboxamide]: the Min conc. response is 0.3 µM. In turn, `CC(NC(=O)c1sc(CCN2CCN(C)CC2)nc1C(F)(F)F)c1cccc(OC(F)(F)F)c1` (stereo not shown) [Example 21, 2-[2-(4-methyl-1-piperazinyl)ethyl]-N-[1-[3-(3-trifluoromethoxy)phenyl]ethyl]-4-(trifluoromethyl)-5-thiazolecarboxamide] returned a Min conc. response of 0.3 µM and an EC50 of 1000 to 20000 nM.

Regarding `CC(NC(=O)c1sc(C(O)CN2CCCC2)nc1C(F)(F)F)c1cccc(C(F)(F)F)c1` (stereo not shown) [Example 42, 2-[1-hydroxy-2-(1-pyrrolidinyl)ethyl]-N-[1-[3-(trifluoromethyl)phenyl]ethyl]-4-(trifluoromethyl)-5-thiazolecarboxamide], the Min conc. response worked out at 3 µM and the EC50 lay within 50 to 1000 nM.

Broadly, the EC50 is the concentration giving half of the maximal effect.
